From patent US20090069373A1, “Quinoline Acids” (Wyeth, priority 2007, published 2009)

Assays:
human LXRβ = molecular target: T1, human LXRβ (Homo sapiens, UniProt P55055); assay: Ligand-binding test procedure for human LXRβ (3H T0901317 competition, flash plates); details: for Binding ratio a/b: IC50 (μM) LXRα binding/IC50 (μM) LXRβ binding; for IC50: biotinylated hLXRβ, tracer 3H T0901317
T1 construct: biotin (biotinylated; biotinylation tag not described); made in house; host or cells: E. coli
T1 sequence (P55055 1-460): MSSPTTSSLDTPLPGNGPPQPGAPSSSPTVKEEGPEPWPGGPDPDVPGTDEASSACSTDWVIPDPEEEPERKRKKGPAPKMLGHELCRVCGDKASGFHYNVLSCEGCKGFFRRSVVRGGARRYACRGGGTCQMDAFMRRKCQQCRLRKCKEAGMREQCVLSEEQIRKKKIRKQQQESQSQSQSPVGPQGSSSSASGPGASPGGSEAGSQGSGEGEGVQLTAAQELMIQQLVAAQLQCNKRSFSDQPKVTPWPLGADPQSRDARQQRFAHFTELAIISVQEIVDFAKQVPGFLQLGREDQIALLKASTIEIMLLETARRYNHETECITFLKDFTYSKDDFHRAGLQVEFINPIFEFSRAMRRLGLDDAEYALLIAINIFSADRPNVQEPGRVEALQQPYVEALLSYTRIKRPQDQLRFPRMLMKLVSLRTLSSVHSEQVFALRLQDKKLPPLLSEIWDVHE

human LXRα = molecular target: T2, human LXRα (Homo sapiens, UniProt Q13133); assay: Ligand-binding test procedure for human LXRα (3H T0901317 competition, flash plates); details: biotinylated hLXRα, tracer 3H T0901317
T2 construct: biotin (biotinylated; biotinylation tag not described); made in house; host or cells: E. coli
T2 sequence (Q13133 1-447): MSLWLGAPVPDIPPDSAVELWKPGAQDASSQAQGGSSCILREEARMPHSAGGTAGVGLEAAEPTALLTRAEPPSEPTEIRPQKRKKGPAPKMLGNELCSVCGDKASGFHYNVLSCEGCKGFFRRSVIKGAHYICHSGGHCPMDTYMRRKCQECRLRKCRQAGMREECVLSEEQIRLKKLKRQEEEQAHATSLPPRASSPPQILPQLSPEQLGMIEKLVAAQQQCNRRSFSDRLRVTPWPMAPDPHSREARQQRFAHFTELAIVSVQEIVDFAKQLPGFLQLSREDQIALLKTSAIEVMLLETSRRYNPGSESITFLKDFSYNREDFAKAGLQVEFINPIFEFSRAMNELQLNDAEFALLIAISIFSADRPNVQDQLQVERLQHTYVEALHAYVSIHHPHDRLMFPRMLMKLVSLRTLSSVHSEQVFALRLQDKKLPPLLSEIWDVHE
Outline: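 Competition binding of test ligands against 5 nM ³H tracer solution (pre-mix concentration) on biotinylated hLXRα from E. coli extract, captured on streptavidin flash plates (Bmax ~4000 cpm). Ligand dilution series made in DMSO. Incubated overnight at +4 °C; bound radioactivity counted after washing.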

ABCA1 gene = assay: Quantitative analysis of ABCA1 gene regulation in THP-1 cells (real-time RT-PCR); assay type: cell-based, human; details: differentiated THP-1 cells, ABCA1 mRNA, 18 hrs; for EC50: Homo sapiens; for THP cells ABCA1 Ag. (%): LXR agonist reference at 1.0 uM as positive control
Experimental: Quantitative Analysis of ABCA1 Gene Regulation in THP-1 Cells. […] Materials and Methods Cell culture: The THP-1 monocytic cell line (ATCC # TIB-202) was obtained from American Type Culture Collection (Manassas, Va.) and cultured in RPMI 1640 medium (Gibco, Carlsbad, Calif.) containing 10% FBS, 2 mM L-glutamine, and 55 uM beta-Mercaptoethanol (BME). […] Louis, Mo.) for three days to induce differentiation into adherent macrophages. Differentiated THP-1 cells were treated with test compounds or ligands dissolved in DMSO (Sigma, D-8779) in culture medium lacking phorbal ester. […] L., J. Med. Chem. (2000), 45:1963-1966.). Results of antagonist analysis are expressed as % antagonism and IC50 (in μM).

Row | SMILES | Binding ratio a/b (human LXRβ) | IC50 (human LXRβ) | IC50 (human LXRα) | EC50 (ABCA1 gene) | THP cells ABCA1 Ag. (%) (ABCA1 gene)
1 | O=C(O)Cc1cccc2c(NCc3cncc(-c4c(Cc5ccccc5)cnc5c(C(F)(F)F)cccc45)c3)cccc12 [Example 3, {5-[({5-[3-Benzyl-8-(trifluoromethyl)quinolin-4-yl]pyridin-3-yl}methyl)amino]-1-naphthyl}acetic acid] | 32 | 0.03 µM | 0.964 µM | 4.76 µM | 69.1%
2 | O=C(O)Cc1cccc2c(OCc3cccc(-c4ccnc5c(C(F)(F)F)cccc45)c3)cccc12 [Example 5, [5-({3-[8-(Trifluoromethyl)quinolin-4-yl]benzyl}oxy)-1-naphthyl]acetic acid] | 30 | 0.026 µM | 0.779 µM | 3.39 µM | 69.4%
3 | O=C(O)c1cccc(Oc2cccc(-c3c(Cc4ccccc4)cnc4c(Cl)cccc34)c2)c1 [Example 125, 3-[3-(3-Benzyl-8-chloroquinolin-4-yl)phenoxy]benzoic acid] | 1 | 0.228 µM | 0.267 µM | – | –
4 | O=C(O)c1cccc(Oc2cccc(-c3c(Cc4ccccc4)cnc4c(C(F)(F)F)cccc34)c2)c1 [Example 126, 3-{3-[3-Benzyl-8-(trifluoromethyl)quinolin-4-yl]phenoxy}benzoic acid] | 2 | 0.135 µM | 0.241 µM | – | –
5 | O=C(O)c1ccc(Cn2ccc3c(-c4c(Cc5ccccc5)cnc5c(C(F)(F)F)cccc45)cccc32)cc1 [Example 127, 4-({4-[3-Benzyl-8-(trifluoromethyl)quinolin-4-yl]-1H-indol-1-yl}methyl)benzoic acid] | 1 | 2.46 µM | 2.14 µM | – | –
6 | Cc1ccc(C(=O)O)cc1C#Cc1cccc(-c2c(Cc3ccccc3)cnc3c(C(F)(F)F)cccc23)c1 [Example 129, 3-({3-[3-Benzyl-8-(trifluoromethyl)quinolin-4-yl]phenyl}ethynyl)-4-methylbenzoic acid] | 1 | 0.605 µM | 0.656 µM | – | –
7 | O=C(O)c1cccc(-c2cccc(-c3c(Cc4ccccc4)cnc4c(C(F)(F)F)cccc34)c2)c1 [Example 130, 3′-[3-Benzyl-8-(trifluoromethyl)quinolin-4-yl]biphenyl-3-carboxylic acid] | – | 2.38 µM | 1.32 µM | – | –
8 | COc1ccc(C(=O)O)cc1C#Cc1cccc(-c2c(Cc3ccccc3)cnc3c(C(F)(F)F)cccc23)c1 [Example 131, 3-({3-[3-Benzyl-8-(trifluoromethyl)quinolin-4-yl]phenyl}ethynyl)-4-methoxybenzoic acid] | 2 | 1.47 µM | 2.63 µM | – | –

Stronger by IC50 (human LXRβ), values ahead:

Row | Binding ratio a/b (human LXRβ) | IC50 (human LXRβ) | IC50 (human LXRα) | EC50 (ABCA1 gene) | SMILES | THP cells ABCA1 Ag. (%) (ABCA1 gene)
9 | 7 | 0.019 µM | 0.137 µM | – | Cc1cc(C(=O)O)ccc1C#Cc1cccc(-c2c(Cc3ccccc3)cnc3c(C(F)(F)F)cccc23)c1 [Example 128, 4-({3-[3-Benzyl-8-(trifluoromethyl)quinolin-4-yl]phenyl}ethynyl)-3-methylbenzoic acid] | –
10 | 48 | 0.015 µM | 0.745 µM | 3.76 µM | O=C(O)Cc1cccc2c(NCc3cccc(-c4ccnc5c(C(F)(F)F)cccc45)c3)cccc12 [Example 1, [5-({3-[8-(Trifluoromethyl)quinolin-4-yl]benzyl}amino)-1-naphthyl]acetic acid] | 91.15%
11 | 22 | 0.013 µM | 0.294 µM | 1.14 µM | Cc1cnc2c(C(F)(F)F)cccc2c1-c1cccc(COc2cccc3c(CC(=O)O)cccc23)c1 [Example 9] | 122.6%
12 | 22 | 0.01 µM | 0.211 µM | 2.63 µM | Cc1cnc2c(C(F)(F)F)cccc2c1-c1cccc(CNc2cccc3c(CC(=O)O)cccc23)c1 [Example 13, [5-({3-[3-methyl-8-(trifluoromethyl)quinolin-4-yl]benzyl}amino)-1-naphthyl]acetic acid] | 107.8%
